Data as given in US7625912B2, “Mitotic kinesin inhibitors” (Merck & Co. Inc, priority 2003, dated 2009).

Biological target: T1, human KSP motor domain (KSP(367H)) (Homo sapiens, UniProt P52732)
T1 construct: were used to amplify the motor domain and the neck linker region; made in house; host or cells: E. coli BL21 (DE3), pRSETa vector
T1 sequence (P52732 18-359 limits assumed): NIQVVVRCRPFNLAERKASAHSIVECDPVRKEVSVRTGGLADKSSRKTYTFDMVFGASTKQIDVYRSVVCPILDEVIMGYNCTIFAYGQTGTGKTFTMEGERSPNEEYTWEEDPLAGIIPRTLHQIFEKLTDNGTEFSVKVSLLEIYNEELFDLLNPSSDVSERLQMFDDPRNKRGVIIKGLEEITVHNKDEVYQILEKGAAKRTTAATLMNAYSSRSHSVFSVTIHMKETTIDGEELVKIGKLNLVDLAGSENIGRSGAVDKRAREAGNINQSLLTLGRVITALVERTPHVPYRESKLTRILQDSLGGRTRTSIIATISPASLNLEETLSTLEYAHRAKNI
Assay: Kinesin ATPase in vitro assay
Format: biochemical
Conditions: microtubules, 1 mM ATP, 23° C.; free phosphate by quinaldine red/ammonium molybdate, absorbance 540 nm
Excerpt: I. Kinesin ATPase In Vitro Assay
Cloning and Expression of Human Poly-Histidine Tagged KSP Motor Domain (KSP(367H))
Plasmids for the expression of the human KSP motor domain construct were cloned by PCR using a pBluescript full length human KSP construct (Blangy et al., Cell, vol. 83, pp 1159-1169, 1995) as a template. The N-terminal primer 5′-[…] (SEQ.ID.NO.: 1) and the C-terminal primer 5′-[…] […] (SEQ.ID.NO.: 2) were used to amplify the motor domain and the neck linker region. The PCR products were digested with AseI and XhoI, ligated into the NdeL/XhoI digestion product of pRSETa (Invitrogen) and transformed into E. coli BL21 (DE3).
Cells were grown at 37° C. to an OD600 of 0.5. […]
The kinesin motor domain is incubated with microtubules, 1 mM ATP (1:1 MgCl2: Na-ATP), and compound at 23° C. in buffer containing 80 mM K-HEPES (pH 7.0), 1 mM EGTA, 1 mM DTT, 1 mM MgCl2, and 50 mM KCl. […] Free phosphate from the ATP hydrolysis reaction is measured via a quinaldine red/ammonium molybdate assay by adding 150 μl of quench C buffer containing a 2:1 ratio of quench A:quench B. Quench A contains 0.1 mg/ml quinaldine red and 0.14% polyvinyl alcohol; quench B contains 12.3 mM ammonium molybdate tetrahydrate in 1.15 M sulfuric acid. The reaction is incubated for 10 minutes at 23° C., and the absorbance of the phospho-molybdate complex is measured at 540 nm.

IC50: ≤ 50 µM
Structure (SMILES): Cc1ccc(-n2c(-c3ccccc3Br)nccc2=O)cc1F [1-4, 2-(2-bromophenyl)-3-(3-fluoro-4-methylphenyl)pyrimidin-4(3H)-one]
